From patent publication US20090238808A1, “Process for the identification of novel enzyme interacting compounds” (priority 2005, published 2009)
Each block holds one compound with its values, some of them ahead of it.

How the values were obtained:
DDR2 = target: T1, DDR2 (Homo sapiens, UniProt Q16832); assay: Biochemical kinase activity assay (Upstate IC50Profiler Express); settings: Upstate IC50Profiler Express service
T1 construct: purchased Upstate (IC50Profiler Express service)

CSK = CSK (Homo sapiens, UniProt P41240); settings: purified kinase; published data; cited from earlier work
MER = target: T2, MER (Homo sapiens, UniProt Q12866); assay: Biochemical kinase activity assay (Invitrogen SelectScreen)
T2 sequence (Q12866 21-999): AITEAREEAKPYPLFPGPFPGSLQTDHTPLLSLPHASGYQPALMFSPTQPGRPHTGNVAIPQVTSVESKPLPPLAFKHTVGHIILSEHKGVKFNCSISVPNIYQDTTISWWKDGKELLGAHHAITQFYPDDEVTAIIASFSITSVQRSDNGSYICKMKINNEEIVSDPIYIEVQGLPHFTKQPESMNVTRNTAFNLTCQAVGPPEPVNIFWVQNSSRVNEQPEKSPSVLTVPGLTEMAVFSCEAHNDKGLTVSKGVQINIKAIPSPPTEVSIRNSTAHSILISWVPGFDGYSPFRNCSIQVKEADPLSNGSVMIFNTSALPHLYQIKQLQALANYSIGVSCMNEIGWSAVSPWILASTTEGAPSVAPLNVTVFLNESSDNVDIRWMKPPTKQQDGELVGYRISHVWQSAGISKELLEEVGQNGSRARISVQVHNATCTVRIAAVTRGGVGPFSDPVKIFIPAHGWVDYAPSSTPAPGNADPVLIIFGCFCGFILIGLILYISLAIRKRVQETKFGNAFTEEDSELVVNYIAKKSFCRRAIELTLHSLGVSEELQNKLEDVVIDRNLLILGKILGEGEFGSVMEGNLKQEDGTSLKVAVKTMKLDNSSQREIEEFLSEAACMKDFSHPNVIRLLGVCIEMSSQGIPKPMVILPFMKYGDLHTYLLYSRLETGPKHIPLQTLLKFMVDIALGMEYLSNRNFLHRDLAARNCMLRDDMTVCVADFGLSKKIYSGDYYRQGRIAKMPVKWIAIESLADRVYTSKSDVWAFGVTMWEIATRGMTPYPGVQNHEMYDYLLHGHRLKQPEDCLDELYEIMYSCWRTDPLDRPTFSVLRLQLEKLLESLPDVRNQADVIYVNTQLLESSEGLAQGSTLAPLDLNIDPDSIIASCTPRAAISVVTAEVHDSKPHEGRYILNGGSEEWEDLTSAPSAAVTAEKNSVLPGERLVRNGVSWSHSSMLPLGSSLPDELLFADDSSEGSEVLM

CaMK2g = CaMK2g (Mus musculus, UniProt Q923T9); assay: Kinobeads elution with test compound, mouse brain lysate, MS; format: binding; settings: kinase released from kinobeads by specific elution
Text: (§1) This example illustrates competitive elution of proteins bound to kinobeads with non-modified test compounds (see particularly the fourth aspect of the invention).
(§2) The kinobeads were contacted with mouse brain lysate under conditions that allow the binding of the proteins in the lysate to the ligands. The binding conditions were close to physiological by choosing suitable buffer conditions preserving the function of the proteins. After removing non-captured proteins through a gentle washing procedure the bound proteins were contacted with a test compound for protein elution.
(§3) Various test compounds (see section 2.7) were used to release bound proteins following these steps:
(§4) 1. Resuspend beads with bound proteins (section 2.4) in 1×DP buffer/0.2% NP-40 as 1:3 slurry (volume/volume). 2. Transfer 20 μl the 1:3 slurry into MoBiTech columns (equivalent to 5 μl of beads). 3. Place the column into an Eppendorf tube and centrifuge it for 15 seconds at 800 rpm at 4° C. Close columns with lower lid. 4. Add 10 μl elution buffer containing 1.0 mM of the test compound (concentration ranges of 0.1 to 1.0 mM are suitable). As a control use elution buffer containing 2% DMSO or 2% DMF dependent on the solvent used for dissolving the test compound. Close column with upper lid. 5. Incubate for 30 minutes at 4° C. in an Eppendorf incubator at 700 rpm. 6. […] To harvest the eluate centrifuge 2 minutes at 2.000 rpm in table top centrifuge at room temperature. The typical volume of the eluate is approximately 15 μl. 7. Add 5 μl 4× NuPAGE SDS Sample Buffer (Invitrogen, NP0007) containing 100 mM DTT (DTT has to be added just prior to use). 8. Incubate for 30 minutes at 50° C. 9. Add 1/10 volume of 200 mg/ml iodoacetamide, incubate for 30 min at room temperature, protect from light. This reaction leads to the alkylation of cysteines for mass spectrometry. 10. Before loading samples onto the gel, centrifuge samples for 5 minutes at 15.000 rpm in order to remove precipitates. 11. […] 2.6 Preparation of Stock Solutions used in this Protocol
(§5) Search criteria varied depending on which mass spectrometer was used for the analysis.

GSK3B = target: T3, GSK3B (Mus musculus, UniProt Q9WV60); assay: as above; format: binding; settings: kinase released from kinobeads by specific elution
T3 construct: from tissue; host or cells: mouse brain
Text: as §1, §2, §3, §4, §5

JNK2 = target: T4, JNK2 (Mus musculus, UniProt Q9WTU6); assay: as above; format: binding; settings: kinase released from kinobeads by specific elution
T4 construct: from tissue; host or cells: mouse brain
Protocol: (§6) This example illustrates competitive elution of proteins bound to kinobeads with non-modified test compounds (see particularly the fourth aspect of the invention). The kinobeads (as described in example 1) were contacted with mouse brains lysate, bound proteins were eluted with various test compounds and the released proteins were analysed by mass spectrometry.
as §2, §3
(§7) 1. Resuspend beads with bound proteins (section 2.4) in 1×DP buffer/0.2% NP-40 as 1:3 slurry (volume/volume). 2. Transfer 20 μl the 1:3 slurry into MoBiTech columns (equivalent to 5 μl of beads). 3. Place the column into an Eppendorf tube and centrifuge it for 15 seconds at 800 rpm at 4° C. Close columns with lower lid. 4. Add 10 μl elution buffer containing 1.0 mM of the test compound (concentration ranges of 0.1 to 1.0 mM are suitable). As a control use elution buffer containing 2% DMSO or 2% DMF dependent on the solvent used for dissolving the test compound. Close column with upper lid. 5. Incubate for 30 minutes at 4° C. in an Eppendorf incubator at 700 rpm. 6. Open column (first top, then bottom), put column back into siliconized tube (SafeSeal Microcentrifuge Tubes, cat. no 11270, Sorenson BioScience, Inc.). To harvest the eluate centrifuge 2 minutes at 2.000 rpm in table top centrifuge at room temperature. The typical volume of the eluate is approximately 15 μl. 7. Add 5 μl 4× NuPAGE SDS Sample Buffer (Invitrogen, NP0007) containing 100 mM DTT (DTT has to be added just prior to use). 8. Incubate for 30 minutes at 50° C. 9. Add 1/10 volume of 200 mg/ml iodoacetamide, incubate for 30 min at room temperature, protect from light. This reaction leads to the alkylation of cysteines for mass spectrometry. 10. Before loading samples onto the gel, centrifuge samples for 5 minutes at 15.000 rpm in order to remove precipitates. 11. For protein separation apply 10 μl sample to NuPAGE 4-12% Bis-Tris gel (Invitrogen, NPO335). 2.6 Preparation of Stock Solutions used in this Protocol
as §5

PYK2 = target: T5, PYK2 (Mus musculus, UniProt Q9QVP9); assay: as above; format: binding; settings: kinase released from kinobeads by specific elution
T5 construct: from tissue; host or cells: mouse brain
Protocol: as §6, §2, §3, §7, §5

Erk2 = target: T6, Erk2 (Mus musculus, UniProt P63085); assay: as above; format: binding; settings: kinase released from kinobeads by specific elution
T6 construct: […]; from tissue; host or cells: mouse brain
Protocol: as §6, §2, §3, §7, §5

FER = FER (Mus musculus, UniProt P70451); assay: as above; format: binding; settings: kinase released from kinobeads by specific elution
Protocol: as §6, §2, §3, §7, §5

MARK2 = target: T7, MARK2 (Mus musculus, UniProt Q05512); assay: as above; format: binding; settings: kinase released from kinobeads by specific elution
T7 construct: from tissue; host or cells: mouse brain
Protocol: as §6, §2, §3, §7, §5

PKCg = target: T8, PKCg (Mus musculus, UniProt P63318); assay: as above; format: binding; settings: kinase released from kinobeads by specific elution
T8 construct: from tissue; host or cells: mouse brain
Protocol: as §6, §2, §3, §7, §5

GSK3Aps = target: T9, GSK3Aps (Mus musculus, UniProt Q2NL51); assay: as above; format: binding; settings: kinase released from kinobeads by specific elution
T9 construct: from tissue; host or cells: mouse brain
Protocol: as §6, §2, §3, §7, §5

CaMK2a = target: T10, CaMK2a (Mus musculus, UniProt P11798); assay: as above; format: binding; settings: kinase released from kinobeads by specific elution
T10 construct: […]; from tissue; host or cells: mouse brain
Protocol: as §6, §2, §3, §7, §5

CaMK2d = target: T11, CaMK2d (Mus musculus, UniProt Q6PHZ2); assay: as above; format: binding; settings: kinase released from kinobeads by specific elution
T11 construct: […]; from tissue; host or cells: mouse brain
Protocol: as §6, §2, §3, §7, §5

AAK1 = AAK1 (Mus musculus, UniProt Q3UHJ0); assay: as above; format: binding; settings: kinase released from kinobeads by specific elution
Protocol: as §6, §2, §3, §7, §5

CRIK = CRIK (Mus musculus, UniProt P49025); assay: as above; format: binding; settings: kinase released from kinobeads by specific elution
Protocol: as §6, §2, §3, §7, §5

Erk1ps5 = target: T12, Erk1ps5 (Mus musculus, UniProt Q63844); assay: as above; format: binding; settings: kinase released from kinobeads by specific elution
T12 construct: […]; from tissue; host or cells: mouse brain
Protocol: as §6, §2, §3, §7, §5

RSK1 (Mus musculus) = test system: T13, RSK1 (Mus musculus); assay: as above; format: binding; settings: kinase released from kinobeads by specific elution
T13 construct: from tissue; host or cells: mouse brain
Protocol: as §6, §2, §3, §7, §5

MAP2K1 = target: T14, MAP2K1 (Mus musculus, UniProt P31938); assay: as above; format: binding; settings: kinase released from kinobeads by specific elution
T14 construct: from tissue; host or cells: mouse brain
Protocol: as §6, §2, §3, §7, §5

CDK5 = CDK5 (Mus musculus, UniProt P49615); assay: as above; format: binding; settings: kinase released from kinobeads by specific elution
Protocol: as §6, §2, §3, §7, §5

CaMKK2 = CaMKK2 (Mus musculus, UniProt Q8C078); assay: as above; format: binding; settings: kinase released from kinobeads by specific elution
Protocol: as §6, §2, §3, §7, §5

CaMK2b = CaMK2b (Mus musculus, UniProt P28652); assay: as above; format: binding; settings: kinase released from kinobeads by specific elution
Protocol: as §6, §2, §3, §7, §5

Chain of CRIK (P49025 whole entry): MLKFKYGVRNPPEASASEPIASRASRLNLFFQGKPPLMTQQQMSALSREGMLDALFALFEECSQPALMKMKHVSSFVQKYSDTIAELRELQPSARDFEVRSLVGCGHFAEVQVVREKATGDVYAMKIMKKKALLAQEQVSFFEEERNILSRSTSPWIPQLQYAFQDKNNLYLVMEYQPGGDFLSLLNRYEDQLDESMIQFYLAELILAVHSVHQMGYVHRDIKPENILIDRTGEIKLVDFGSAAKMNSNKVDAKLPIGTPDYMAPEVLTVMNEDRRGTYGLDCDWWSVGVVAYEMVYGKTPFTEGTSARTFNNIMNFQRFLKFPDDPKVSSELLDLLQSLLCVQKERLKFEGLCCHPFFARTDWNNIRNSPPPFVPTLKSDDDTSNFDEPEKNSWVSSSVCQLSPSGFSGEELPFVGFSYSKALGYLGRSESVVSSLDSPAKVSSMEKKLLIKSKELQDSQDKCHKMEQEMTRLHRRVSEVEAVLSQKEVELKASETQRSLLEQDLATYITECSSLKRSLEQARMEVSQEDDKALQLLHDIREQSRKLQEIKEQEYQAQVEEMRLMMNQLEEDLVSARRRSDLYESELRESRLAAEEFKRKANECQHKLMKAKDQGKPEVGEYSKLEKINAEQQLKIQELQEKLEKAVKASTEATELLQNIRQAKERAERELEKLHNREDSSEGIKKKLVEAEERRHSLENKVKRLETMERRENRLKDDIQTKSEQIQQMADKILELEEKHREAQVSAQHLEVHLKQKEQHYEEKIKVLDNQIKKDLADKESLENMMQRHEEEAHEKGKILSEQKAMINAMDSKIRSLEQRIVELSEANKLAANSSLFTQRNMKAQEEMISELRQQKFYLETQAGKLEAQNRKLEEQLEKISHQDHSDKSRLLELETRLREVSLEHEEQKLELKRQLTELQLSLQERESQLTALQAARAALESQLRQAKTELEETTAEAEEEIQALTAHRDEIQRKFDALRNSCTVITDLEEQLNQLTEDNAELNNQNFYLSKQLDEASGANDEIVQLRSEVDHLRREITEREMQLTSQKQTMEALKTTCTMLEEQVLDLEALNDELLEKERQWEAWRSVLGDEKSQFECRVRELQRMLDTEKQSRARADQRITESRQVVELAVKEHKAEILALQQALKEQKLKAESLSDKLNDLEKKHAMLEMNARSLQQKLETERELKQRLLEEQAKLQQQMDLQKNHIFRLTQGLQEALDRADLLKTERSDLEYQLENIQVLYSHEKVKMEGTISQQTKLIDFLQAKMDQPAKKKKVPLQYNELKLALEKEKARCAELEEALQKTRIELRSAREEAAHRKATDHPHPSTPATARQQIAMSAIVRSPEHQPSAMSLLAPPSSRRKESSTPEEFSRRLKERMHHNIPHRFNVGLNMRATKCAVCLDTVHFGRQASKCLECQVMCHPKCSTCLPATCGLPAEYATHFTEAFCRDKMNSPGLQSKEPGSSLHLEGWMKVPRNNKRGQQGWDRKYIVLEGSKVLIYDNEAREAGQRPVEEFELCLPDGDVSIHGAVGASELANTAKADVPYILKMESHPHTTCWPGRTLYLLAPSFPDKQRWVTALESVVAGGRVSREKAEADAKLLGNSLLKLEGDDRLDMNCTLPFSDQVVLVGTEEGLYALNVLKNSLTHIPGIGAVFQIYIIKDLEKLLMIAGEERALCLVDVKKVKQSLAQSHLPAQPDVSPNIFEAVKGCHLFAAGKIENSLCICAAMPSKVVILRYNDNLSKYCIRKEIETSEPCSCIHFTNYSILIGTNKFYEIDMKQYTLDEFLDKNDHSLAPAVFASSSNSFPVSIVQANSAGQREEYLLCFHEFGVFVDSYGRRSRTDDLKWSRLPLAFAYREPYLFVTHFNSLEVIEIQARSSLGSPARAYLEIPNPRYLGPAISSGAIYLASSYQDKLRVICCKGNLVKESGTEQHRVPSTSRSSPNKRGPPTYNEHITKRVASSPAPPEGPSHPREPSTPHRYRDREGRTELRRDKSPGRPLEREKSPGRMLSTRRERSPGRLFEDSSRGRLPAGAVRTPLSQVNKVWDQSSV
T7 sequence (Q05512 whole entry): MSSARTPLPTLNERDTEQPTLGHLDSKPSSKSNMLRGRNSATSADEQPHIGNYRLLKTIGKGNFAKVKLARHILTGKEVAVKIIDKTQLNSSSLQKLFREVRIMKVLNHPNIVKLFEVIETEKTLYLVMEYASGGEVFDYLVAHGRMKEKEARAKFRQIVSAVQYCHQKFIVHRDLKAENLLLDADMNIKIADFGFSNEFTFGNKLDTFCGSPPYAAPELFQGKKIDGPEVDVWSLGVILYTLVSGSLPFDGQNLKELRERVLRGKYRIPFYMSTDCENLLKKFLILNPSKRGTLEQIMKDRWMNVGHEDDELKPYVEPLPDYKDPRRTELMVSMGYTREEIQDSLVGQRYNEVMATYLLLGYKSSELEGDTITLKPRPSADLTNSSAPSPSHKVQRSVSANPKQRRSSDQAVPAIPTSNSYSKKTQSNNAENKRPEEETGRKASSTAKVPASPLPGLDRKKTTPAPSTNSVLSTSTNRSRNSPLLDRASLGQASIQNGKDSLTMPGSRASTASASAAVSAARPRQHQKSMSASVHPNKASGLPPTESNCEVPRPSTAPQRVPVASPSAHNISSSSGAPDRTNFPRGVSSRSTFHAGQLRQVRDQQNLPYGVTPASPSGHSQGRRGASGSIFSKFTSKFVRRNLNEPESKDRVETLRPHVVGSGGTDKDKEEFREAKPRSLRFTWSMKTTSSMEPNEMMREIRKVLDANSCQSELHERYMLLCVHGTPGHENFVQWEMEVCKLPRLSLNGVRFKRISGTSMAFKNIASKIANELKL
T6 sequence (P63085 whole entry): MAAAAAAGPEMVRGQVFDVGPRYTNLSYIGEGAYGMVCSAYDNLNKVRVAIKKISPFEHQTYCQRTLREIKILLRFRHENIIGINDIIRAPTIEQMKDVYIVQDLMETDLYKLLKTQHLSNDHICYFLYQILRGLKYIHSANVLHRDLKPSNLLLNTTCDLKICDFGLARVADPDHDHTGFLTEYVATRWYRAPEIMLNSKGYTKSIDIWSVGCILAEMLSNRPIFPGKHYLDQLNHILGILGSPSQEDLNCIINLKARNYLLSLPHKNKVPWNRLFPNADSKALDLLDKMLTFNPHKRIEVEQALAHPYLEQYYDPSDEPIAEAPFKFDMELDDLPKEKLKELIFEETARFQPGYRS
T12 sequence (Q63844 2-380 limits assumed): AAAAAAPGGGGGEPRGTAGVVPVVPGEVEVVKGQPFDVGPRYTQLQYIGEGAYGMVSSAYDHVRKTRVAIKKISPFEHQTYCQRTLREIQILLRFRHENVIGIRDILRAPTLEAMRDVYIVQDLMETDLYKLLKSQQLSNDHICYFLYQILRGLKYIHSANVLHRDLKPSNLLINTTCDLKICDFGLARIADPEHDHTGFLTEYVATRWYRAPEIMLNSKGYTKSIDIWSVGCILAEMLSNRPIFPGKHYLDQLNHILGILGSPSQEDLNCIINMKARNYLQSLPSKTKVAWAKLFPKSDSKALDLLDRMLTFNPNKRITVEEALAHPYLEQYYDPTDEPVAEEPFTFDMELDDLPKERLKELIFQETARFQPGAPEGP
Chain of CDK5 (P49615 whole entry): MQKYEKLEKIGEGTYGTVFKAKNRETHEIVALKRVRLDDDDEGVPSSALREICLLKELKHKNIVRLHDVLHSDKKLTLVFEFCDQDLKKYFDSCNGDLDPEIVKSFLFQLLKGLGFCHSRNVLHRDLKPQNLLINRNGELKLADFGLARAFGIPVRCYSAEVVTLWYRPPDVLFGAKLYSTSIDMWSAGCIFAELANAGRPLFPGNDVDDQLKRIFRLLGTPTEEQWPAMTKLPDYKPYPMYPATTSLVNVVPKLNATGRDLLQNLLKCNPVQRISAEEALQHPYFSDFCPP
T9 sequence (Q2NL51 2-490 limits assumed): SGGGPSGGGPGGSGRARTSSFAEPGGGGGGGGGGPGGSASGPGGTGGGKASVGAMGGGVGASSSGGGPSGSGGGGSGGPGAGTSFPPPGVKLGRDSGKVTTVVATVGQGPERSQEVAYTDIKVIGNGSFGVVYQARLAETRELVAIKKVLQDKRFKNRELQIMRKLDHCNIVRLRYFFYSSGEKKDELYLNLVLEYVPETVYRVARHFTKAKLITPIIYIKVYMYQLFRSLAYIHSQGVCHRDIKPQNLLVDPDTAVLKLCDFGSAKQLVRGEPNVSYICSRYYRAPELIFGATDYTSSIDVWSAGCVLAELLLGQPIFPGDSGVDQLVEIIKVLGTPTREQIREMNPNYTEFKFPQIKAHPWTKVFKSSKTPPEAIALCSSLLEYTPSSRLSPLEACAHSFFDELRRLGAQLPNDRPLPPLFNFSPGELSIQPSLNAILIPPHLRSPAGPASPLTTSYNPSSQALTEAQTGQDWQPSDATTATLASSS
Chain of CaMKK2 (Q8C078 whole entry): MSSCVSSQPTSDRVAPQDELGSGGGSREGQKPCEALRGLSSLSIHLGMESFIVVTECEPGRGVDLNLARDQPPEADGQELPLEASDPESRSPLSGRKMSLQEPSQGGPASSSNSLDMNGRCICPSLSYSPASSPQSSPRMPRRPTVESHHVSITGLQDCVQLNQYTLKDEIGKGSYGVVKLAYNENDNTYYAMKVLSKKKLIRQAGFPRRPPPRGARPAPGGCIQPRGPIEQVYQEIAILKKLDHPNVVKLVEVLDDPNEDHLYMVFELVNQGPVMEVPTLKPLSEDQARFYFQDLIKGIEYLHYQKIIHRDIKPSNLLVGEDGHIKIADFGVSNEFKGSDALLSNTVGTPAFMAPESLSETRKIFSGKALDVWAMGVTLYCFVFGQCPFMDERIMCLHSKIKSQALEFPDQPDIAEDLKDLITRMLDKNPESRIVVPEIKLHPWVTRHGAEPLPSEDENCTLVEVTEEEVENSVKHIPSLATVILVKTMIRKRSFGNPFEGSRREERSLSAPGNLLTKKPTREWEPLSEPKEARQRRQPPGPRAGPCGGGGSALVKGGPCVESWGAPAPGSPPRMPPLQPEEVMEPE

IC50 (DDR2): 4900 nM
IC50 (MER): 15.7 nM
SMILES: COc1cc(Nc2c(C#N)cnc3cc(OCCCN4CCN(C)CC4)c(OC)cc23)c(Cl)cc1Cl [bosutinib]
IC50 (CSK): 310 nM

mass spectrometry score, CaMK2g (CaMK2g): 550
number of identified peptides, CaMK2g (CaMK2g): 18
mass spectrometry score, GSK3B (GSK3B): 1176
number of identified peptides, GSK3B (GSK3B): 54
mass spectrometry score, JNK2 (JNK2): 287
number of identified peptides, JNK2 (JNK2): 11
mass spectrometry score, PYK2 (PYK2): 291
number of identified peptides, PYK2 (PYK2): 7
mass spectrometry score, Erk2 (Erk2): 754
number of identified peptides, Erk2 (Erk2): 50
mass spectrometry score, FER (FER): 237
number of identified peptides, FER (FER): 6
mass spectrometry score, MARK2 (MARK2): 49
number of identified peptides, MARK2 (MARK2): 1
mass spectrometry score, PKCg (PKCg): 107
number of identified peptides, PKCg (PKCg): 2
mass spectrometry score, GSK3Aps (GSK3Aps): 1232
number of identified peptides, GSK3Aps (GSK3Aps): 60
mass spectrometry score, CaMK2a (CaMK2a): 911
number of identified peptides, CaMK2a (CaMK2a): 53
mass spectrometry score, CaMK2d (CaMK2d): 702
number of identified peptides, CaMK2d (CaMK2d): 17
mass spectrometry score, AAK1 (AAK1): 562
number of identified peptides, AAK1 (AAK1): 38
mass spectrometry score, CR1K (CRIK): 90
number of identified peptides, CR1K (CRIK): 5
mass spectrometry score, Erk1ps5 (Erk1ps5): 418
number of identified peptides, Erk1ps5 (Erk1ps5): 14
mass spectrometry score, RSK1 (RSK1 (Mus musculus)): 292
number of identified peptides, RSK1 (RSK1 (Mus musculus)): 7
mass spectrometry score, MAP2K1 (MAP2K1): 208
number of identified peptides, MAP2K1 (MAP2K1): 6
mass spectrometry score, CDK5 (CDK5): 831
number of identified peptides, CDK5 (CDK5): 19
mass spectrometry score, CaMKK2 (CaMKK2): 314
number of identified peptides, CaMKK2 (CaMKK2): 6
mass spectrometry score, CaMK2b (CaMK2b): 834
number of identified peptides, CaMK2b (CaMK2b): 52
SMILES: NCCCn1cc(C2=C(c3c[nH]c4ccccc34)C(=O)NC2=O)c2ccccc21 [CZC1038, Bisindolylmaleimide III, reference compound]
